Patent US20240108740A1, “THERAPEUTIC COMPOSITIONS INCLUDING SPN10 AND USES THEREOF” (Stealth BioTherapeutics Inc., priority 2022, published 2024)
Residues, ends and D or L forms follow the SMILES beside them.

How the values were obtained:
Sprague Dawley rats [1] = test: Example 51: burn-induced hypermetabolism and UCP-1 expression in brown adipose tissue; format: in vivo, rat
Excerpt: Methods. Sprague Dawley rats will be randomly divided into the following groups; sham (S), sham with saline vehicle (SSal), sham with peptide conjugate-treatment (SC), sham with aromatic-cationic peptides (SC2), sham with SPN10(s) (SC3), sham with SPN10(s)+aromatic-cationic peptides (SC4), burn with saline vehicle (BSal), burn with peptide conjugate-treatment (BC), burn with aromatic-cationic peptides (BC2), burn with SPN10(s) (BC3) and burn with SPN10(s)+aromatic-cationic peptides (BC4). The dorsal aspect of burn subjects will be immersed into 100° C. water for 12 seconds to produce third degree 30% TBSA burns under general anesthesia. Sham burn will be produced by immersion in lukewarm water. Subjects will receive 40 mL/kg intraperitoneal saline injection for the resuscitation following the injury. A venous catheter will be placed surgically into the right jugular vein subsequent to sham or burn injury. […] Indirect calorimetry will be performed for 24 hours at 6 days after burn injury in a TSE Indirect Calorimetry System (TSE Co., Germany), and VO2, VCO2 and energy expenditure will be recorded every six minutes. Interscapullar brown adipose tissue will be collected after the indirect calorimetry, and UCP-1 expression in the brown adipose tissue will be evaluated by Western blot.

[2] = Example 16: H2O2 scavenging, luminol-induced chemiluminescence; format: biochemical; details: H2O2 4.4 nmol
Description: The effect of peptide conjugates, aromatic-cationic peptides, or SPN10(s) (with or without aromatic-cationic peptides) on H2O2 will be measured by luminol-induced chemiluminescence. Luminol (25 μM) and horseradish peroxidase (0.7 IU) will be added to a solution of H2O2 (4.4 nmol) followed by peptide conjugates; aromatic-cationic peptides; or SPN10(s) alone or in combination with aromatic-cationic peptides. Chemiluminescence will be monitored with a Chronolog Model 560 aggregometer (Havertown, PA) for 20 minutes at 37° C.

Sprague Dawley rats [3] = test: Example 49: progression of tissue damage following a burn; details: rat, in vivo
Description: Sprague Dawley rats will be randomized into the following groups; sham-burn (SB), burn with saline treatment (B), burn with peptide conjugate-treatment (BP), burn with aromatic-cationic peptides (BP2), burn with SPN10(s) (BP3), and burn with SPN10(s)+aromatic-cationic peptides (BP4). Band BP, BP2, BP3 and BP4 animals will receive a 30% total body surface area full thickness burns by immersing the dorsal body into 100° C. water for 12 seconds with immediate fluid resuscitation. […] Wound re-epithelialization, contraction, and depth will be assessed via gross morphology and histologically over a period of 21 days. […]
Apoptosis of hair follicles of the skin will be measured using TUNEL labeling and activated caspase-3 immunostaining using skin samples obtained between 0 and 48 hours post-burn. Quantification of TUNEL and caspase-3 staining will be done on digitally acquired images at high power. The number of positive cells per high power field will be determined, and compared among the groups.
[…] mapping will be performed using Doppler imaging to assess wound blood flow. Two hours post-burn, the dorsum of the animal will be imaged on a scanning laser Doppler apparatus to quantify the superficial blood flow distribution in the skin within and outside of the burn area. For […] mapping, 100 male Sprague-Dawley rats will be used. […]

## N=C(N)NCCC[C@H](NC(=O)[C@@H](N)Cc1c[nH]c2ccccc12)C(=O)N[C@@H](Cc1c[nH]c2ccccc12)C(=O)N[C@@H](CCCCN)C(N)=O [SPN10, H-L-Trp-L-Arg-L-Trp-L-Lys-NH2] (H-WRWK-NH2)
Sprague Dawley rats [1]; burn groups BC, BC2, BC3, BC4 vs BSal
  UCP-1 levels in brown adipose tissue (Western blot): lower than in the BSal group
Sprague Dawley rats [1]; infused for 7 days
  increase in VO2, VCO2, and energy expenditure after burn: significantly attenuate this effect
[2]
  luminol response (H2O2 scavenging): dose-dependently inhibit the luminol response
Sprague Dawley rats [3]
  burn-induced apoptosis and blood flow: reduce burn-induced apoptosis and blood flow
  wound healing and progression of burn injuries: accelerate wound healing and attenuate the progression of burn injuries
